Assays:
Test in all cases: cells
Type in all cases: functional, cell-based
Conditions in all cases: Homo sapiens
[1] = tested on: LC-2-ad;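 further: growth inhibition of human LC-2-ad cells, read out with a cell viability assay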
Description: SANGER: Inhibition of human LC-2-ad cell growth in a cell viability assay.

[2] = tested on: A4-Fuk;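 further: growth inhibition of A4-Fuk cells, read out by a cell viability assay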
Description: SANGER: Inhibition of human A4-Fuk cell growth in a cell viability assay.

[3] = tested on: EC-GI-10
Description: SANGER: Inhibition of human EC-GI-10 cell growth in a cell viability assay.

[4] = tested on: MOLT-16;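 further: growth inhibition of human MOLT-16 cells, read out with a cell viability assay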
Description: SANGER: Inhibition of human MOLT-16 cell growth in a cell viability assay.

[5] = tested on: ACN;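 further: growth inhibition of the human ACN cell line, read out via cell viability testing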
Description: SANGER: Inhibition of human ACN cell growth in a cell viability assay.

[6] = tested on: NCI-H226;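 further: cell viability read-out used to gauge growth inhibition of the cells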
Description: SANGER: Inhibition of human NCI-H226 cell growth in a cell viability assay.

[7] = tested on: NTERA-2-cl-D1;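 further: inhibition of cell growth, measured with a cell viability assay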
Description: SANGER: Inhibition of human NTERA-S-cl-D1 cell growth in a cell viability assay.

[8] = tested on: NCI-H1648;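 further: cell viability assay measuring inhibition of NCI-H1648 cell growth, from the Sanger screening data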
Description: SANGER: Inhibition of human NCI-H1648 cell growth in a cell viability assay.

[9] = tested on: SJSA-1;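 further: growth inhibition of human SJSA-1 cells, read out through a cell viability measurement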
Description: SANGER: Inhibition of human SJSA-1 cell growth in a cell viability assay.

[10] = tested on: ES1;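 further: growth inhibition of ES1 cells, read out with a cell viability assay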
Description: SANGER: Inhibition of human ES1 cell growth in a cell viability assay.

[11] = tested on: SW982;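 further: growth inhibition of SW982 cells, read out with a cell viability assay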
Description: SANGER: Inhibition of human SW982 cell growth in a cell viability assay.

[12] = tested on: SCH;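 further: growth inhibition of human SCH cells, read out in a cell viability assay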
Description: SANGER: Inhibition of human SCH cell growth in a cell viability assay.

[13] = tested on: COLO-824
Description: SANGER: Inhibition of human COLO-824 cell growth in a cell viability assay.

[14] = tested on: HT
Description: SANGER: Inhibition of human HT cell growth in a cell viability assay.

[15] = tested on: KNS-42;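 further: growth inhibition of KNS-42 cells, read out with a cell viability assay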
Description: SANGER: Inhibition of human KNS-42 cell growth in a cell viability assay.

[16] = tested on: SK-PN-DW;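 further: growth inhibition measured with a viability assay on these cells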
Description: SANGER: Inhibition of human SK-PN-DW cell growth in a cell viability assay.

[17] = tested on: MN-60;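 further: growth inhibition of the MN-60 cell line, determined with a cell viability assay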
Description: SANGER: Inhibition of human MN-60 cell growth in a cell viability assay.

[18] = tested on: U-266
Description: SANGER: Inhibition of human U-266 cell growth in a cell viability assay.

[19] = tested on: SW872;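 further: growth inhibition of SW872 cells, read out by a viability assay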
Description: SANGER: Inhibition of human SW872 cell growth in a cell viability assay.

[20] = tested on: KURAMOCHI;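 further: growth inhibition of KURAMOCHI cells, read out with a cell viability assay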
Description: SANGER: Inhibition of human KURAMOCHI cell growth in a cell viability assay.

[21] = tested on: CTB-1
Description: SANGER: Inhibition of human CTB-1 cell growth in a cell viability assay.

[22] = tested on: LOX IMVI
Description: SANGER: Inhibition of human LOXIMVI cell growth in a cell viability assay.

[23] = tested on: A101D;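 further: growth inhibition of the cell line, measured with a viability assay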
Description: SANGER: Inhibition of human A101D cell growth in a cell viability assay.

[24] = tested on: no-11;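 further: growth inhibition of human NO-11 cells, read out with a cell viability assay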
Description: SANGER: Inhibition of human no-11 cell growth in a cell viability assay.

[25] = tested on: ONS-76;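 further: growth inhibition of human ONS-76 cells, read out with a cell viability assay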
Description: SANGER: Inhibition of human ONS-76 cell growth in a cell viability assay.

[26] = tested on: KM-H2;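 further: growth inhibition of KM-H2 cells, read out by a cell viability assay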
Description: SANGER: Inhibition of human KM-H2 cell growth in a cell viability assay.

[27] = tested on: TE-10;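 further: growth inhibition of TE-10 cells, measured by a cell viability assay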
Description: SANGER: Inhibition of human TE-10 cell growth in a cell viability assay.

[28] = tested on: NCI-H209;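 further: growth inhibition of human NCI-H209 cells, measured by a cell viability assay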
Description: SANGER: Inhibition of human NCI-H209 cell growth in a cell viability assay.

[29] = tested on: EW-16;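 further: growth inhibition of human EW-16 cells, read out as cell viability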
Description: SANGER: Inhibition of human EW-16 cell growth in a cell viability assay.

[30] = tested on: GOTO;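 further: growth inhibition of GOTO cells, read out by a cell viability assay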
Description: SANGER: Inhibition of human GOTO cell growth in a cell viability assay.

[31] = tested on: NCI-H1838;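 further: growth inhibition of NCI-H1838 cells, determined with a cell viability readout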
Description: SANGER: Inhibition of human NCI-H1838 cell growth in a cell viability assay.

[32] = tested on: TGBC1TKB;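 further: growth inhibition of TGBC1TKB cells, read out by a cell viability assay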
Description: SANGER: Inhibition of human TGBC1TKB cell growth in a cell viability assay.

[33] = tested on: K562
Description: SANGER: Inhibition of human K-562 cell growth in a cell viability assay.

[34] = tested on: NCI-H1581;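 further: cell growth inhibition read out by a viability assay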
Description: SANGER: Inhibition of human NCI-H1581 cell growth in a cell viability assay.

[35] = tested on: ATN-1;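 further: growth inhibition of human ATN-1 cells, read out with a cell viability assay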
Description: SANGER: Inhibition of human ATN-1 cell growth in a cell viability assay.

[36] = tested on: SF-268;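 further: growth inhibition of SF-268 cells determined with a cell viability assay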
Description: SANGER: Inhibition of human SF268 cell growth in a cell viability assay.

[37] = tested on: SK-MEL-1;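 further: growth inhibition of human SK-MEL-1 cells, read out by a cell viability assay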
Description: SANGER: Inhibition of human SK-MEL-1 cell growth in a cell viability assay.

[38] = tested on: KALS-1;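 further: growth inhibition of KALS-1 cells, determined with a cell viability assay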
Description: SANGER: Inhibition of human KALS-1 cell growth in a cell viability assay.

[39] = tested on: AM-38;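 further: growth inhibition of AM-38 cells of human origin, read out by a cell viability assay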
Description: SANGER: Inhibition of human AM-38 cell growth in a cell viability assay.

[40] = tested on: JVM-2;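 further: growth inhibition of JVM-2 cells determined by a cell viability assay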
Description: SANGER: Inhibition of human JVM-2 cell growth in a cell viability assay.

[41] = tested on: CCRF-CEM;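 further: inhibition of CCRF-CEM cell growth, measured by a cell viability assay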
Description: SANGER: Inhibition of human CCRF-CEM cell growth in a cell viability assay.

[42] = tested on: EW-1;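 further: growth inhibition of the human EW-1 cell line, read out by a cell viability assay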
Description: SANGER: Inhibition of human EW-1 cell growth in a cell viability assay.

[43] = tested on: NMC-G1;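 further: growth inhibition of the NMC-G1 cell line, measured with a cell viability read-out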
Description: SANGER: Inhibition of human NMC-G1 cell growth in a cell viability assay.

[44] = tested on: KS-1;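 further: growth inhibition of KS-1 cells, read out with a cell viability assay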
Description: SANGER: Inhibition of human KS-1 cell growth in a cell viability assay.

[45] = tested on: CGTH-W-1;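 further: growth inhibition of human CGTH-W-1 cells measured by cell viability assay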
Description: SANGER: Inhibition of human CGTH-W-1 cell growth in a cell viability assay.

[46] = tested on: VA-ES-BJ;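 further: growth inhibition of the VA-ES-BJ cell line, read out by a cell viability assay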
Description: SANGER: Inhibition of human VA-ES-BJ cell growth in a cell viability assay.

[47] = tested on: OMC-1;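 further: growth inhibition of the OMC-1 cell line, measured by a cell viability assay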
Description: SANGER: Inhibition of human OMC-1 cell growth in a cell viability assay.

[48] = tested on: KINGS-1;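 further: cell viability assay measuring suppression of KINGS-1 cell growth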
Description: SANGER: Inhibition of human KINGS-1 cell growth in a cell viability assay.

[49] = tested on: 8-MG-BA;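 further: growth inhibition of 8-MG-BA cells, read out with a cell viability assay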
Description: SANGER: Inhibition of human 8-MG-BA cell growth in a cell viability assay.

[50] = tested on: 697
Description: SANGER: Inhibition of human 697 cell growth in a cell viability assay.

[51] = tested on: SNU-C2B;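 further: cell viability readout used to measure compound-driven suppression of SNU-C2B cell proliferation, IC50 marking half-maximal growth inhibition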
Description: SANGER: Inhibition of human SNU-C2B cell growth in a cell viability assay.

[52] = tested on: TE-5;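 further: inhibition of cell growth, read out by a cell viability assay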
Description: SANGER: Inhibition of human TE-5 cell growth in a cell viability assay.

[53] = tested on: MMAC-SF;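 further: growth inhibition of human MMAC-SF cells, read out with a cell viability assay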
Description: SANGER: Inhibition of human MMAC-SF cell growth in a cell viability assay.

[54] = tested on: K5
Description: SANGER: Inhibition of human K5 cell growth in a cell viability assay.

[55] = tested on: RPMI-8226
Description: SANGER: Inhibition of human RPMI-8226 cell growth in a cell viability assay.

[56] = tested on: SK-NEP-1;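 further: growth inhibition of human SK-NEP-1 cells, read out by a cell viability assay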
Description: SANGER: Inhibition of human SK-NEP-1 cell growth in a cell viability assay.

[57] = tested on: J-RT3-T3-5;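 further: cell viability assay measuring growth inhibition of human J-RT3-T3-5 cells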
Description: SANGER: Inhibition of human J-RT3-T3-5 cell growth in a cell viability assay.

[58] = tested on: BE-13
Description: SANGER: Inhibition of human BE-13 cell growth in a cell viability assay.

[59] = tested on: LS-1034
Description: SANGER: Inhibition of human LS-1034 cell growth in a cell viability assay.

[60] = tested on: MEG-01
Description: SANGER: Inhibition of human MEG-01 cell growth in a cell viability assay.

[61] = tested on: DU-4475
Description: SANGER: Inhibition of human DU-4475 cell growth in a cell viability assay.

[62] = tested on: MFH-ino
Description: SANGER: Inhibition of human MFH-ino cell growth in a cell viability assay.

[63] = tested on: GI-1
Description: SANGER: Inhibition of human GI-1 cell growth in a cell viability assay.

## NC(=O)c1ncn([C@@H]2O[C@H](COP(=O)(O)O)[C@@H](O)[C@H]2O)c1N
[1]
  IC50: 1170 µM
[2]
  IC50: 297 µM
[3]
  IC50: > 2000 µM
[4]
  IC50: > 2000 µM
[5]
  IC50: 1880 µM
[6]
  IC50: > 2000 µM
[7]
  IC50: > 2000 µM
[8]
  IC50: > 2000 µM
[9]
  IC50: 949 µM
[10]
  IC50: > 2000 µM
[11]
  IC50: > 2000 µM
[12]
  IC50: > 2000 µM
[13]
  IC50: 1130 µM
[14]
  IC50: 995 µM
[15]
  IC50: > 2000 µM
[16]
  IC50: 741 µM
[17]
  IC50: > 2000 µM
[18]
  IC50: > 2000 µM
[19]
  IC50: > 2000 µM
[20]
  IC50: > 2000 µM
[21]
  IC50: 646 µM
[22]
  IC50: 929 µM
[23]
  IC50: > 2000 µM
[24]
  IC50: > 2000 µM
[25]
  IC50: > 2000 µM
[26]
  IC50: 1170 µM
[27]
  IC50: 1510 µM
[28]
  IC50: > 2000 µM
[29]
  IC50: > 2000 µM
[30]
  IC50: > 2000 µM
[31]
  IC50: > 2000 µM
[32]
  IC50: 814 µM
[33]
  IC50: > 2000 µM
[34]
  IC50: > 2000 µM
[35]
  IC50: 412 µM
[36]
  IC50: > 2000 µM
[37]
  IC50: > 2000 µM
[38]
  IC50: 1160 µM
[39]
  IC50: 1030 µM
[40]
  IC50: > 2000 µM
[41]
  IC50: > 2000 µM
[42]
  IC50: 1870 µM
[43]
  IC50: > 2000 µM
[44]
  IC50: 1250 µM
[45]
  IC50: > 2000 µM
[46]
  IC50: 819 µM
[47]
  IC50: > 2000 µM
[48]
  IC50: > 2000 µM
[49]
  IC50: > 2000 µM
[50]
  IC50: 483 µM
[51]
  IC50: > 2000 µM
[52]
  IC50: > 2000 µM
[53]
  IC50: > 2000 µM
[54]
  IC50: > 2000 µM
[55]
  IC50: 501 µM
[56]
  IC50: 611 µM
[57]
  IC50: > 2000 µM
[58]
  IC50: 365 µM
[59]
  IC50: > 2000 µM
[60]
  IC50: 447 µM

## CC[C@@]1(O)C(=O)OCc2c1cc1n(c2=O)Cc2cc3ccccc3nc2-1 [CAMPTOTHECIN]
[1]
  IC50: 0.00281 µM
[2]
  IC50: 0.00175 µM
[3]
  IC50: 0.0079 µM
[4]
  IC50: 0.000732 µM
[5]
  IC50: 0.0857 µM
[6]
  IC50: 0.0225 µM
[7]
  IC50: 0.000274 µM
[8]
  IC50: 0.0381 µM
[9]
  IC50: 0.018 µM
[10]
  IC50: 9.57e-05 µM
[11]
  IC50: 0.00406 µM
[12]
  IC50: > 0.1 µM
[14]
  IC50: 0.0297 µM
[15]
  IC50: 0.0331 µM
[16]
  IC50: 0.00116 µM
[17]
  IC50: 0.00508 µM
[18]
  IC50: 0.0695 µM
[19]
  IC50: 0.0242 µM
[20]
  IC50: > 0.1 µM
[21]
  IC50: 0.000429 µM
[22]
  IC50: 0.00372 µM
[25]
  IC50: 0.00241 µM
[26]
  IC50: 0.0557 µM
[28]
  IC50: 4.84e-05 µM
[61]
  IC50: 0.00307 µM
[29]
  IC50: 0.000121 µM
[30]
  IC50: 0.000706 µM
[33]
  IC50: > 0.1 µM
[34]
  IC50: 0.0335 µM
[35]
  IC50: 0.00204 µM
[36]
  IC50: 0.00338 µM
[37]
  IC50: 0.0513 µM
[38]
  IC50: 0.0699 µM
[39]
  IC50: 0.00441 µM
[40]
  IC50: > 0.1 µM
[41]
  IC50: 0.00555 µM
[42]
  IC50: 0.00178 µM
[43]
  IC50: 0.0198 µM
[44]
  IC50: 0.0579 µM
[45]
  IC50: 0.00327 µM
[46]
  IC50: 0.00347 µM
[47]
  IC50: 0.0782 µM
[49]
  IC50: 0.0015 µM
[50]
  IC50: 0.00203 µM
[51]
  IC50: 0.0354 µM
[52]
  IC50: 0.00738 µM
[53]
  IC50: 0.0384 µM
[54]
  IC50: 0.0032 µM
[55]
  IC50: 0.0295 µM
[56]
  IC50: 0.00123 µM
[57]
  IC50: 0.00258 µM
[58]
  IC50: 0.00456 µM
[59]
  IC50: > 0.1 µM
[62]
  IC50: 0.0271 µM
[63]
  IC50: 0.00337 µM
[60]
  IC50: 0.0395 µM
